According to BindingDB's records for doi:10.1021/jm500759v (Griffith University, 2014):

Experiment: Inhibition of neuraminidase activity of human parainfluenza virus 1 C35 hemagglutinin-neuraminidase pre-incubated for 20 mins before MUN substrate by methylumbelliferone release based fluorescence assay

Row | Compound | IC50
1 | [N-]=[N+]=N[C@H]1C=C(C(=O)O)O[C@@H]([C@H](O)[C@H](O)CO)[C@@H]1NC(=O)C1CC1 | 0.91 µM
2 | C/C=C(\C)C(=O)N[C@H]1[C@H]([C@H](O)[C@H](O)CO)OC(C(=O)O)=C[C@@H]1N=[N+]=[N-] | 7.76 µM
3 | CC(=O)N[C@H]1[C@H]([C@H](O)[C@H](O)CO)OC(C(=O)O)=C[C@@H]1N=[N+]=[N-] | 3.92 µM
4 | CC(C)C(=O)N[C@H]1[C@H]([C@H](O)[C@H](O)CO)OC(C(=O)O)=C[C@@H]1N | 261 µM
5 | CC(=O)N[C@H]1[C@H]([C@H](O)[C@H](O)CO)OC(C(=O)O)=C[C@@H]1O | 63.8 µM
6 | CCC(C)C(=O)N[C@H]1[C@H]([C@H](O)[C@H](O)CO)OC(C(=O)O)=C[C@@H]1N=[N+]=[N-] (stereo partly drawn) | 1.58 µM
7 | CC(C)C(=O)N[C@H]1[C@H]([C@H](O)[C@H](O)CO)OC(C(=O)O)=C[C@@H]1NC(=N)N | > 1000 µM
8 | CC(=O)N[C@H]1[C@H]([C@H](O)[C@H](O)CO)OC(C(=O)O)=C[C@@H]1N | > 1000 µM
9 | CC(C)C(=O)N[C@H]1[C@H]([C@H](O)[C@H](O)CO)OC(C(=O)O)=C[C@@H]1N=[N+]=[N-] | 0.5 µM
10 | [N-]=[N+]=N[C@H]1C=C(C(=O)O)O[C@@H]([C@H](O)[C@H](O)CO)[C@@H]1NC(=O)C1CCC1 | 1.92 µM
11 | CC(O)C(=O)N[C@H]1[C@H]([C@H](O)[C@H](O)CO)OC(C(=O)O)=C[C@@H]1N=[N+]=[N-] (stereo partly drawn) | 68.1 µM
12 | CC(C)C(=O)N[C@H]1[C@H]([C@H](O)[C@H](O)CO)OC(C(=O)O)=C[C@@H]1O | 3.82 µM
13 | CC(CO)C(=O)N[C@H]1[C@H]([C@H](O)[C@H](O)CO)OC(C(=O)O)=C[C@@H]1N=[N+]=[N-] (stereo partly drawn) | 9.49 µM
